14 compounds from patent US4336389A, “2-Substituted-4-aryl-5-thiazolecarboxylic acids and their derivatives as safening agents” (Monsanto Company, priority 1978, dated 1982) can be followed below.

What all share (assay type): in vivo
Assay [1] has as its system Barnyard Grass. Put plainly: Inhibition of barnyard grass, safening agent and butachlor applied to soil surface, flooded pots (Example 18, Table IV). The note with it: ~21 days, mean of two replicates. The procedure:
(§1) 5.08 cm. of a good grade of top soil is placed in a 7.62 cm. deep plastic pot. A predetermined number of barnyard grass seeds are applied to the soil surface. A measured quantity of the safening agent and butachlor dispersed or dissolved in a suitable carrier is applied to the soil surface. Pre-soaked rice is seeded into the pots that were previously flooded with water. The water level is lowered below the soil surface for one week. The pots are flooded just above the soil surface for the duration of the test. The plants are observed at the end of approximately 21 days and the results in terms of percent inhibition recorded. For each test, pots are prepared containing soil treated only with butachlor. For each test, pots are prepared containing soil treated only with the safening agent. Pots are also prepared with untreated soil.

In assay [2] the test system is rice. The assay is described as follows: Inhibition of rice, safening agent and butachlor applied to soil surface, flooded pots (Example 18, Table IV). The note with it: ~21 days, mean of two replicates. On the procedure: as §1
For assay [3], the system named is rice. The assay is described as follows: Safening effect against butachlor injury to rice, safening agent and herbicide incorporated in soil (Example 15, Table I). Also on record: key: herbicide-alone + safener-alone effect (max 100) minus combined effect. The following applies: safening agent 8.96 kg/h, ~21 days. On the procedure:
(§2) A good grade of top soil is placed in a container and compacted to a depth of approximately 1.27 cm. from the top of said container. A predetermined number of rice seeds to be tested are placed on top of the soil. A quantity of soil sufficient to substantially fill the container is measured and placed in a second container. A measured quantity of the safening agent dispersed or dissolved in a suitable carrier is applied to the soil in the second container. A measured quantity of butachlor dispersed or dissolved in a suitable carrier is then sprayed on the soil already treated with the safening agent. The soil containing the safening agent and herbicide is thoroughly mixed. This mixing is sometimes referred to as incorporation of the herbicide and safening agent into the soil. The mixing or incorporation provides a substantially uniform distribution of the safening agent and herbicide throughout the soil. The seeds are covered with the soil containing the safening agent and herbicide and the pans are leveled. The pans are then placed on a sand bench in the greenhouse and watered from below as needed. The plants are observed at the end of approximately 21 days and the results in terms of percent inhibition of each seed lot are recorded. For each test series a pan of plants is also prepared containing no herbicide and no safening agent as a control. Additionally, for each test, a pan of plants is prepared with soil covering the seed containing no herbicide and only the measured amount of safening agent being incorporated into the soil covering the seeds to ascertain any herbicidal effect of the safening agent alone. For each series of tests the herbicidal effect of the herbicide is observed from pans of plants treated with the same quantity of herbicide alone. The "safening effect" is determined by adding the hericidal effect of the herbicide when applied alone to the herbicidal effect of the safening agent when applied alone (in no instance, however, will this sum be greater than 100) and substracting from that the herbicidal effect obtained when the herbicide and safening agent are incorporated into the soil as discussed above.
Table I summarizes the results obtained when the compounds of the invention were tested in accordance with the procedure of Example 15.

Assay [4] relates to rice. The assay is described as follows: Safening effect against butachlor injury to pre-soaked rice, soil surface application, flooded pots (Example 16, Table II). Also on record: key: herbicide injury alone + safener injury alone (max 100) minus combined injury. The note with it: safening agent 0.56 kg/h, ~21 days, mean of two replicates. On the procedure: as §2
A good grade of top soil is placed in a plastic pot. A measured quantity of the safening agent dispersed or dissolved in a suitable carrier is sprayed on the soil surface. A measured quantity of butachlor herbicide dissolved in a solvent is sprayed on the soil surface. Presoaked rice is seeded into the pots that were previously flooded with water and the water level lowered below the soil surface for one week. The pots are flooded at least up to the soil surface for the duration of the test. The plants are observed at the end of approximately 21 days and the results in terms of the percent inhibition of rice is recorded. As in Example 15, for each test pots are prepared containing soil treated only with butachlor. For each test, pots are also prepared containing soil treated only with the safening agent. Pots are also prepared in which the soil is not treated with either the herbicide or the safening agent. The safening effect is determined in accordance with Example 15.
Table II summarizes the results obtained when the compounds of the invention were tested in accordance with the procedure of Example 16.

The test system of assay [5] is Barnyard Grass. Put plainly: Inhibition of barnyard grass by butachlor and safening agent sprayed on soil surface, flooded pots (Example 17, Table III). The note with it: ~21 days, mean of two replicates. The procedure: as §1, with “agent” for “agent and butachlor”, “is sprayed on the soil surface. A measured quantity of butachlor herbicide dissolved in a solvent is sprayed on” for “is applied to”, “one week to allow barnyard grass to emerge.” for “one week.”, “prepared containing” for “prepared with”

The subject of assay [6] is rice. The assay is described as follows: Inhibition of rice by butachlor and safening agent sprayed on soil surface, flooded pots (Example 17, Table III). The note with it: ~21 days, mean of two replicates. On the procedure:
as §1, with “agent” for “agent and butachlor”, “is sprayed on the soil surface. A measured quantity of butachlor herbicide dissolved in a solvent is sprayed on” for “is applied to”, “one week to allow barnyard grass to emerge.” for “one week.”, “prepared containing” for “prepared with”

The mark [7] stands for this setting: safening agent 1.12 kg/h + butachlor 0.07 kg/h.
[8] abbreviates: safening agent 1.12 kg/h + butachlor 0.28 kg/h.
[9] abbreviates: safening agent 1.12 kg/h + butachlor 1.12 kg/h.
Setting [10] is: safening agent 0.07 kg/h + butachlor 0.07 kg/h.
Setting [11] is: safening agent 0.07 kg/h + butachlor 0.28 kg/h.
The mark [12] stands for this setting: safening agent 0.07 kg/h + butachlor 1.12 kg/h.
Setting [13] is: safening agent 0.28 kg/h + butachlor 0.07 kg/h.
[14] abbreviates: safening agent 0.28 kg/h + butachlor 0.28 kg/h.
[15] abbreviates: safening agent 0.28 kg/h + butachlor 1.12 kg/h.

Structures are written as SMILES. Where a name gives a salt, the structure may show the parent alone.

With `CCOC(=O)c1sc(Oc2ccc(Cl)cc2Cl)nc1-c1ccccc1` [Ethyl 2-(2',4'-dichlorophenoxy)-4-phenyl-5-thiazolecarboxylate], the “% Inhibition, Barnyard Grass” value in the assay on Barnyard Grass [1] (setting [7]) is 83%; in the assay on Barnyard Grass [1] (setting [8]), 98%; in the assay on Barnyard Grass [1] (setting [9]) it was 100%; in the assay on Barnyard Grass [1] (safening agent alone 1.12 kg/h), 0%. Besides, the “% Inhibition, Rice” value turned out to be 15% in the assay with rice [2] (setting [7]), 88% in the assay with rice [2] (setting [8]), 99% in the assay on rice [2] (setting [9]) and 0% with rice [2] (safening agent alone 1.12 kg/h).

Consider `CCOC(=O)c1sc(Cl)nc1-c1cccc(C(F)(F)F)c1` [Example 2, Ethyl 2-Chloro-4-m-Trifluoromethylphenyl-5-thiazolecarboxylate], for which the “Safening Effect” value in the assay on rice [3] (butachlor 4.48 kg/h) was 50; in the assay on rice [4] (butachlor 0.07 kg/h), 68; in the assay with rice [4] (butachlor 0.28 kg/h) it was 26; in the assay on rice [4] (butachlor 1.12 kg/h), “* (Safening effect between 0 and 20)”.

Consider `CCOC(=O)c1sc(Cl)nc1-c1ccc(F)cc1` [Example 3, Ethyl 2-Chloro-4-(p-Fluorophenyl)-5-Thiazolecarboxylate], for which the “Inhibition, Barnyard Grass” value in the assay on Barnyard Grass [5] (setting [10]) came out at 97%; in the assay on Barnyard Grass [5] (setting [11]), 99%; in the assay on Barnyard Grass [5] (setting [12]) it was 100%; in the assay on Barnyard Grass [5] (setting [13]), 92%; with Barnyard Grass [5] (setting [14]), 100%; in the assay with Barnyard Grass [5] (setting [15]), 100%. Besides, the “Inhibition, Barnyard Grass” value in the assay on Barnyard Grass [5] (setting [7]) is recorded as 92%; with Barnyard Grass [5] (setting [8]) it was 100%; with Barnyard Grass [5] (setting [9]) it was 100%; with Barnyard Grass [5] (safening agent alone 0.07 kg/h) it was 0%; in the assay with Barnyard Grass [5] (safening agent alone 0.28 kg/h), 0%; with Barnyard Grass [5] (safening agent alone 1.12 kg/h) it was 0%. Besides, the “Safening Effect” value in the assay with rice [3] (butachlor 6.72 kg/h) is reported as 65; in the assay on rice [4] (butachlor 0.07 kg/h), 30; in the assay on rice [4] (butachlor 0.28 kg/h) it was 73; in the assay on rice [4] (butachlor 1.12 kg/h), 62. For the same compound, the “Inhibition, Rice” value in the assay with rice [6] (setting [10]) is 0%; in the assay on rice [6] (setting [11]) it was 5%; in the assay on rice [6] (setting [12]), 70%; in the assay on rice [6] (setting [13]), 0%; in the assay on rice [6] (setting [14]), 5%; in the assay with rice [6] (setting [15]), 58%. Besides, the “Inhibition, Rice” value amounted to 0% with rice [6] (setting [7]); 0% in the assay on rice [6] (setting [8]); 43% with rice [6] (setting [9]); 0% in the assay on rice [6] (safening agent alone 0.07 kg/h); 0% in the assay on rice [6] (safening agent alone 0.28 kg/h); 0% in the assay with rice [6] (safening agent alone 1.12 kg/h).

Consider `CCOC(=O)c1sc(Cl)nc1-c1ccccc1Cl` [Example 5, Ethyl 2-Chloro-4-(o-Chlorophenyl)-5-Thiazolecarboxylate], for which, in the assay on rice [3] (butachlor 6.72 kg/h), the “Safening Effect” value stood at 65.

On to `CCOC(=O)c1sc(Cl)nc1-c1cccc(C)c1` [Example 6, Ethyl 2-Chloro-4-(m-Tolyl)-5-Thiazolecarboxylate], for which the “Safening Effect” value in the assay with rice [3] (butachlor 6.72 kg/h) is recorded as 65.

For the compound `CCOC(=O)c1sc(Cl)nc1-c1ccc([N+](=O)[O-])cc1` [Example 7, Ethyl 2-Chloro-4-(p-Nitrophenyl)-5Thiazolecarboxylate], the “Safening Effect” value was 25 in the assay with rice [3] (butachlor 4.48 kg/h); “* (Safening effect between 0 and 20)” with rice [4] (butachlor 0.07 kg/h); 38 in the assay on rice [4] (butachlor 0.28 kg/h); “* (Safening effect between 0 and 20)” in the assay on rice [4] (butachlor 1.12 kg/h).

Turning to `CCOC(=O)c1sc(OCC)nc1-c1ccccc1` [Example 8, Ethyl 2-Ethoxy-4-Phenyl-5-Thiazolecarboxylate], the “Safening Effect” value in the assay with rice [3] (butachlor 4.48 kg/h) was 75. In addition, the “% Inhibition, Barnyard Grass” value was 100% in the assay with Barnyard Grass [1] (setting [7]), 100% with Barnyard Grass [1] (setting [8]), 100% in the assay with Barnyard Grass [1] (setting [9]) and 0% in the assay on Barnyard Grass [1] (safening agent alone 1.12 kg/h). Besides, the “% Inhibition, Rice” value was 30% in the assay with rice [2] (setting [7]), 88% with rice [2] (setting [8]), 95% with rice [2] (setting [9]) and 0% in the assay with rice [2] (safening agent alone 1.12 kg/h).

Take `CCOC(=O)c1sc(OCC)nc1-c1cccc(C(F)(F)F)c1` [Example 9, Ethyl 2-Ethoxy-4-(m-Trifluoromethylphenyl)-5-Thiazolecarboxylate]: the “Safening Effect” value in the assay with rice [3] (butachlor 4.48 kg/h) came out at 20.

Turning to `CCOC(=O)c1sc(Oc2ccc(Cl)cc2Cl)nc1-c1cccc(C(F)(F)F)c1` [Example 10, Ethyl 2-(2',4'-Dichlorophenoxy)-4-(m-Trifluoromethylphenyl)-5-Thiazolecarboxylate], the “Safening Effect” value was 43 with rice [3] (butachlor 4.48 kg/h); “* (Safening effect between 0 and 20)” with rice [4] (butachlor 0.07 kg/h); “* (Safening effect between 0 and 20)” with rice [4] (butachlor 0.28 kg/h); “* (Safening effect between 0 and 20)” in the assay with rice [4] (butachlor 1.12 kg/h).

Regarding `O=C(O)c1sc(Cl)nc1-c1ccccc1` [Example 11, 2-Chloro-4-Phenyl-5-Thiazolecarboxylic Acid], the “Safening Effect” value in the assay on rice [3] (butachlor 4.48 kg/h) was 50; in the assay with rice [4] (butachlor 0.07 kg/h), “* (Safening effect between 0 and 20)”; in the assay on rice [4] (butachlor 0.28 kg/h), 63; with rice [4] (butachlor 1.12 kg/h) it was 45.

For the compound `O=C(Cl)c1sc(Cl)nc1-c1ccccc1` [Example 12, 2-Chloro-4-Phenyl-5-Thiazolecarbonyl Chloride], the “Safening Effect” value in the assay with rice [3] (butachlor 4.48 kg/h) turned out to be 50; with rice [4] (butachlor 0.07 kg/h) it was 35; in the assay with rice [4] (butachlor 0.28 kg/h) it was 80; with rice [4] (butachlor 1.12 kg/h), 62.

With `COC(=O)c1sc(Cl)nc1-c1ccccc1` [Example 13, Methyl 2-Chloro-4-Phenyl-5-Thiazolecarboxylate], the “Safening Effect” value in the assay on rice [3] (butachlor 4.48 kg/h) turned out to be 30.

For the compound `CCCOC(=O)c1sc(Cl)nc1-c1ccccc1` [Example 14, n-Propyl 2-Chloro-4-Phenyl-5-Thiazolecarboxylate], the “Safening Effect” value in the assay with rice [3] (butachlor 4.48 kg/h) is reported as 20.

For `O=C(O)c1sc(Cl)nc1-c1ccccc1` [triethanolamine salt of 2-chloro-4-phenyl-5-thiazolecarboxylic acid], the “% Inhibition, Barnyard Grass” value in the assay with Barnyard Grass [1] (setting [7]) is listed as 88%; in the assay on Barnyard Grass [1] (setting [8]), 99%; in the assay on Barnyard Grass [1] (setting [9]), 100%; with Barnyard Grass [1] (safening agent alone 1.12 kg/h), 0%. In addition, the “% Inhibition, Rice” value in the assay with rice [2] (setting [7]) is on record as 0%; in the assay with rice [2] (setting [8]), 20%; in the assay with rice [2] (setting [9]) it was 60%; in the assay with rice [2] (safening agent alone 1.12 kg/h), 0%.
